Experimental data from patent publication US10329304B2, “Compounds and methods for inhibition of hedgehog signaling and phosphodiesterase” (Vanderbilt University, priority 2014, dated 2019).
Like-named read-outs stand apart in the source and are kept apart here.

What was measured:
[1] = test system: Hedgehog signaling (TM3-Gli-Luc); experiment: TM3-Gli-Luc luciferase reporter assay stimulated with 20 nM SAG; type: cell-based
Experimental: TM3-Gli-Luc cells were maintained on sterile 0.1% gelatin (from porcine skin, Type A, prepared in MilliQ water, autoclaved, then sterile-filtered) in 1:1 Dulbecco's Modified Eagle Medium (DMEM)/F12 supplemented with 5% horse serum, 2.5% fetal bovine serum (FBS), and 15 mM HEPES, hereafter referred to as TM3 Culture Medium. For small molecule evaluation, TM3-Gli-Luc cells were assayed on 0.1% gelatin in DMEM/F12 supplemented with 2.5% FBS and 15 mM HEPES, hereafter referred to as TM3Luc Medium. Sufu^−/− cells were maintained in DMEM supplemented with 4.5 g/L D-glucose, L-glutamine, 25 mM HEPES, and 10% FBS, hereafter referred to as D10 FBS. For small molecule evaluation, Sufu^−/− cells were assayed in DMEM supplemented with 4.5 g/L D-glucose, L-glutamine, 25 mM HEPES, and 0.5% FBS, hereafter referred to as D0.5 FBS. All cells were cultured at 37° C. with a 5% CO2 atmosphere.
On the day of cell plating, 96-well plates were coated with 50 μL/well of sterile 0.1% gelatin for 5 minutes then aspirated and replaced with 50 μL/well of TM3 Culture Medium. TM3-Gli-Luc cells were seeded at a density of 5,000 cells/well in TM3 Culture Medium and incubated for 24 hours. A master mix of 20 nM SAG in TM3Luc Medium was prepared, and small molecule solutions were prepared by adding the desired amount of compound from 10 mM DMSO stock to TM3Luc Medium containing 20 nM SAG. Negative control was prepared by adding an equi-volume amount of DMSO as compared to small molecule treated conditions to TM3Luc Medium not containing SAG. Cell plating medium was aspirated and replaced with 100 μL/well of prepared small molecule-containing media, and plates were incubated for 48 hours before proceeding to luciferase activity and cell viability reading.
TM3Luc Medium from compound treated plates was aspirated and replaced with 82 μL/well of Glo Lysis Buffer (Promega, Madison, Wis., USA), and plates were shaken at 300 rpm and room temperature for 12 minutes. Lysate was split between two white 96-well plates, 45 μL/well and 25 μL/well for luciferase reading and cell viability respectively. For luciferase activity monitoring, 45 μL/well of Steady Glo (Promega, Madison, Wis., USA) was added to 45 μL/well of cell lysate, incubated at room temperature for 5 minutes, then luminescence was measured on a Turner Biosystems Modulus Microplate Reader (Sunnyvale, Calif., USA) with an integration time of 0.5 seconds. For cell viability measurement, 25 μL/well of Cell Titer Glo (Promega, Madison, Wis., USA) (prepared by 1:10 dilution with Glo Lysis Buffer) was added to 25 μL/well of cell lysate, incubated at room temperature for 5 minutes, then luminescence was measured as above.
Luciferase activity data (Steady Glo) was divided by corresponding cell viability data (Cell Titer Glo) to arrive at a live cell number-normalized luciferase activity reading. The average of negative control data (DMSO treated) was subtracted from all wells, and percent activity was calculated by dividing all wells by the positive control (SAG treated) average. […] At least two independent assays tested on separate days were averaged to provide EC50±standard error of the mean.

zebrafish embryos = experiment: Zebrafish embryo phenotypic assay (ZF); type: in vivo; conditions: wild-type embryonic zebrafish, dosed 5 hpf
Experimental: All zebrafish experiments were approved by Vanderbilt University Institutional Animal Care and Use Committee. Wild-type zebrafish of AB strain were maintained using standard protocols. Chemical screen for small molecules was performed as previously described. Briefly, pairs of zebrafish were mated, and fertilized eggs were arrayed in 96-well microtiter plates (5 embryos/well) containing 250 μl E3 water. At ˜4-hpf, small molecule library from Vanderbilt High Throughput Screening Facility was added to each well to the final concentration of 5 μM. Embryos were incubated at 28.5° C. until 24 and 48-hpf, when they were examined for gross morphologic changes indicative of disruption in embryonic patterning. A total of ˜30,000 compounds were screened.
ZF refers to wild-type embryonic zebrafish phenotypic assay involving dosing n=˜10 embryos in E3 egg water with compound from either a stock of 1 mM or 10 mM in DMSO at 5 hours post-fertilization and observing at 24, 48, and 72 hours post-fertilization.

[2] = TM3-Gli-Luc reporter line stimulated with 20 nM SAG, mean ± SEM, Table 13, read-out: TM3-Gli-Luc EC50
[3] = Table 9A, read-out: TM3 G8 Luciferase EC 50

Structure (SMILES) | ZF Phenotype EC100 (zebrafish embryos) | further results
C=C(C)Cn1c(SCC(=O)c2cccs2)nc2sc3c(c2c1=O)CCCC3 [EGM1] |  | EC50 ([1]; 20 nM SAG, read-out: EC50): 1.34 µM
C=C(C)Cn1c(SCC(=O)c2cccs2)nccc1=O [Formula 12] |  | Hh inhibitory activity / potency in words ([1]; 20 nM SAG): complete loss of Hh inhibitory activity; EC50 [1, 2]: > 20 µM
C=C(C)Cn1c(SCC(=O)c2cccs2)nccc1=O [Formula 14a] |  | Hh inhibitory activity / potency in words ([1]; 20 nM SAG): complete loss of activity; EC50 [1, 2]: > 20 µM
CC(O)(CSc1nc2sccc2c(=O)n1C1CC1)c1ccccc1 (stereo not drawn) [Formula 20b] |  | Hh inhibitory activity / potency in words ([1]; 20 nM SAG): only modest potency reductions
O=C(COc1nc2sccc2c(=O)n1C1CC1)c1ccccc1 [Formula 22a] |  | Hh inhibitory activity / potency in words ([1]; 20 nM SAG): complete loss of inhibition
O=C(CNc1nc2sccc2c(=O)n1C1CC1)c1ccccc1 [Formula 22b] |  | Hh inhibitory activity / potency in words ([1]; 20 nM SAG): complete loss of inhibition
O=C(CSc1nc2sc3c(c2c(=O)n1-c1ccccn1)CCCC3)c1cccs1 [JEH-1-034] | 1 µM | 
O=C(CSc1nc2sc3c(c2c(=O)n1-c1ccc(Br)cc1)CCCC3)c1cccs1 [JEH-1-050-1] | >50 µM | 
O=C(CSc1nc2sc3c(c2c(=O)n1-c1ccc(Cl)cn1)CCCC3)c1cccs1 [JEH-1-050-2] | 25 µM | 
O=C(CSc1nc2sccc2c(=O)n1CC1CC1)c1cccs1 [JEH-1-065-1] | 5 µM | 
O=C(O)c1ccc(-n2c(SCC(=O)c3cccs3)nc3sc4c(c3c2=O)CCCC4)cc1 [JEH-1-066] | >50 µM | 
O=C(CSc1nc2sc3c(c2c(=O)n1C1CC1)CCNC3)c1cccs1 [JEH-1-097] | >50 µM | 
O=C(CSc1nc2sccc2c(=O)n1C1CC1)N1CCOCC1 [JEH-1-103] | >50 µM | 
C=C(C)Cn1c(SCC(=O)N2CCOCC2)nc2sccc2c1=O [JEH-1-104] | >50 µM | 
O=C(CSc1nc2sc3c(c2c(=O)n1C1CC1)CCN(C(=O)C1CC1)C3)c1cccs1 [JEH-1-124] | >50 µM | 
CSc1nc2sc3c(c2c(=O)n1C1CC1)CCCC3 [JEH-1-127] | >50 µM | 
CSc1nc2sccc2c(=O)n1C1CC1 [JEH-1-131-2] | >50 µM | 
O=c1c2ccsc2nc(SCc2ccccc2)n1C1CC1 [JEH-1-190-1] | 50 µM | 
O=c1c2ccsc2nc(SCc2ccc(Br)cc2)n1C1CC1 [JEH-1-190-2] | 50 µM | 
CC(C1CC1)n1c(SCC(=O)c2ccccc2)nc2sccc2c1=O (stereo not drawn) [JEH-2-003] | 30 µM | 
O=C(CSc1nc2sccc2c(=O)n1CC1CC1)c1ccccc1 [JEH-2-007-1] | 10 µM | 
COc1ccc(-c2cc3c(=O)n(C4CC4)c(SCC(=O)c4ccccc4)nc3s2)cc1 [JEH-2-018] | >50 µM | 
COC(=O)c1cc(-c2ccc(F)cc2)sc1NC(=S)NC1CC1 [JEH-2-026] | 25 µM | 
O=C(CSc1nc2sc(-c3ccc(F)cc3)cc2c(=O)n1C1CC1)c1ccccc1 [JEH-2-034] | >50 µM | 
CC(C1CC1)n1c(SCC(=O)Nc2ccccn2)nc2sccc2c1=O (stereo not drawn) [JEH-2-041-1] | 20 µM | 
CC(C1CC1)n1c(SCC(=O)Nc2ccccc2O)nc2sccc2c1=O (stereo not drawn) [JEH-2-041-2] | 30 µM | 

Structure (SMILES) | ZF Phenotype EC100 (zebrafish embryos) | further results
C#CCNC(=O)CSc1nc2sc3c(c2c(=O)n1CC(=C)C)CCCC3 [JEH-2-060] | 30 µM | 
O=C(CSc1nc2sc3ccccc3c2c(=O)n1C1CC1)c1ccccc1 [JEH-4-055-1] |  | EC50 [1, 3]: 16.6 µM
O=C(CSc1nc2sc3ccccc3c2c(=O)n1C1CC1)N1CCCCC1 [JEH-4-055-2] |  | EC50 [1, 3]: 6.03 µM
C=C(C)Cn1c(SCCc2cccs2)nc2sc3c(c2c1=O)CCCC3 [JEH-4-135] |  | EC50 [1, 3]: 5.5 µM
C=C(C)Cn1c(SCC(=O)N2CCCC[C@H]2C)nc2sc3c(c2c1=O)CCCC3 [JEH-4-136] |  | TM3 G8 Luciferase % Inh., 2 pM [1]: 44.3%; TM3 G8 Luciferase % Inh., 0.5 pM ([1]; 0.5 pM as printed): 3.7%
C=C(C)Cn1c(SCC(=O)c2cccs2)nc2sc3c(c2c1=O)CCSC3 [JEH-4-143] |  | EC50 [1, 3]: 2.51 µM
C=C(C)Cn1c(NCC(=O)c2cccs2)nc2sc3c(c2c1=O)CCCC3 [JEH-5-052] |  | EC50 [1, 3]: 25 µM
Cc1sc2nc(SCC(=O)c3ccccc3)n(C3CC3)c(=O)c2c1C [JEH-5-087] |  | EC50 [1, 3]: 31.6 µM
C=C(C)Cn1c(SCC(=O)c2cc3ccccc3s2)nc2sc3c(c2c1=O)CCCC3 [KK-14-093-1] | >50 µM | 
C=C(C)Cn1c(SCC(=O)c2cc3ccccc3o2)nc2sc3c(c2c1=O)CCCC3 [KK-14-094-1] | >50 µM | 
C=C(C)Cn1c(SCC(=O)c2ccc(Cl)s2)nc2sc3c(c2c1=O)CCCC3 [KK-14-094-2] | >50 µM | 
C=C(C)Cn1c(SCc2nc3ccc(Cl)cc3o2)nc2sc3c(c2c1=O)CCCC3 [KK-14-094-3] | >50 µM | 
C=C(C)Cn1c(SCc2nc3ccc(C(=O)O)cc3[nH]2)nc2sc3c(c2c1=O)CCCC3 [KK-14-096-1] | >50 µM | 
C=C(C)Cn1c(SCc2nc3cc(OC)ccc3o2)nc2sc3c(c2c1=O)CCCC3 [KK-14-096-2] | >50 µM | 
C=C(C)Cn1c(SCc2nc3ccc(S(=O)(=O)Nc4ccccc4OC)cc3[nH]2)nc2sc3c(c2c1=O)CCCC3 [KK-093-2] | >50 µM | 
O=C(CSc1nc2sc3c(c2c(=O)n1C1CC1)CCN(C(=O)c1ccc(Cl)cc1)C3)c1ccccc1 [KYK-1-54] | >50 µM | 
O=C(CSc1nc2sc3c(c2c(=O)n1C1CC1)CCN(S(=O)(=O)c1ccc(Cl)cc1)C3)c1ccccc1 [KYK-1-58] | >50 µM | 
O=C(CSc1nc2sc3c(c2c(=O)n1C1CC1)CCN(S(=O)(=O)c1ccc([N+](=O)[O-])cc1)C3)c1ccccc1 [KYK-1-61] | >50 µM | 
Cn1cnc(S(=O)(=O)N2CCc3c(sc4nc(SCC(=O)c5ccccc5)n(C5CC5)c(=O)c34)C2)c1 [KYK-1-66] | >50 µM | 
COC(=O)c1c(NC(=S)SC)sc2c1CCNC2 [KYK-1-87] | >50 µM | 
O=C(CSc1nc2sc3c(c2c(=O)n1C1CC1)CCN(CCCc1ccccc1)C3)c1ccccc1 [KYK-1-88] | >50 µM | 
COC(=O)c1c(NC(=S)NC2CC2)sc2c1CCNC2 [KYK-1-96] | >50 µM | 
O=c1c2c3c(sc2[nH]c(=S)n1C1CC1)CNCC3 [KYK-1-99] | >50 µM | 
O=C(CSc1nc2sc3c(c2c(=O)n1C1CC1)CCN(Cc1ccco1)C3)c1ccccc1 [KYK-1-103-1] | >50 µM | 
CCCCN1CCc2c(sc3nc(SCC(=O)c4ccccc4)n(C4CC4)c(=O)c23)C1 [KYK-1-103-2] | >50 µM | 
